# According to patent US8192962B2, “Processes for detecting toxic substances” (Daikin Industries, Ltd., priority 2001, dated 2012):
# Tested on: DNA repair protein genes
# Experiment: DNA chip mRNA expression in yeast, DNA repair protein genes (Table 3)
# Type: cell-based, Saccharomyces cerevisiae S288C
# Conditions: incubated two hours, concentrations as in the 1st table
# How it was run: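 First, S288C yeast grown in YPD at 25° C. are dosed in log phase with one toxicant (growth-inhibiting, not lethal) for 2 h. Next, total RNA is extracted and poly(A) mRNA isolated and reverse-transcribed with Cy3/Cy5-dUTP. Finally, whole-genome chip fluorescence is read relative to unexposed cells.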
structure (smiles),measurement,setting,value
"O=[N+]([O-])c1cc[n+]([O-])c2ccccc12 [(5), 4-nitroquinolin-N-oxide]",The level of expressed mRNA in the presence of chemical substance/The level of expressed mRNA in the absence of chemical substance,yeast gene YAL015C,1.1
same,The level of expressed mRNA in the presence of chemical substance/The level of expressed mRNA in the absence of chemical substance,yeast gene YAR007C,1.5
same,The level of expressed mRNA in the presence of chemical substance/The level of expressed mRNA in the absence of chemical substance,yeast gene YBL019W,1.0
same,The level of expressed mRNA in the presence of chemical substance/The level of expressed mRNA in the absence of chemical substance,yeast gene YBR073W,1.2
same,The level of expressed mRNA in the presence of chemical substance/The level of expressed mRNA in the absence of chemical substance,yeast gene YBR272C,1.1
same,The level of expressed mRNA in the presence of chemical substance/The level of expressed mRNA in the absence of chemical substance,yeast gene YCR014C,1.2
same,The level of expressed mRNA in the presence of chemical substance/The level of expressed mRNA in the absence of chemical substance,yeast gene YDL017W,1.2
same,The level of expressed mRNA in the presence of chemical substance/The level of expressed mRNA in the absence of chemical substance,yeast gene YDL059C,1.2
same,The level of expressed mRNA in the presence of chemical substance/The level of expressed mRNA in the absence of chemical substance,yeast gene YDL200C,1.1
same,The level of expressed mRNA in the presence of chemical substance/The level of expressed mRNA in the absence of chemical substance,yeast gene YDR054C,0.7
same,The level of expressed mRNA in the presence of chemical substance/The level of expressed mRNA in the absence of chemical substance,yeast gene YDR369C,1.0
same,The level of expressed mRNA in the presence of chemical substance/The level of expressed mRNA in the absence of chemical substance,yeast gene YEL019C,0.9
same,The level of expressed mRNA in the presence of chemical substance/The level of expressed mRNA in the absence of chemical substance,yeast gene YEL037C,0.5
same,The level of expressed mRNA in the presence of chemical substance/The level of expressed mRNA in the absence of chemical substance,yeast gene YER162C,0.9
same,The level of expressed mRNA in the presence of chemical substance/The level of expressed mRNA in the absence of chemical substance,yeast gene YFL014W,1.0
same,The level of expressed mRNA in the presence of chemical substance/The level of expressed mRNA in the absence of chemical substance,yeast gene YGL058W,1.0
same,The level of expressed mRNA in the presence of chemical substance/The level of expressed mRNA in the absence of chemical substance,yeast gene YGL091C,0.8
same,The level of expressed mRNA in the presence of chemical substance/The level of expressed mRNA in the absence of chemical substance,yeast gene YGL127C,1.3
same,The level of expressed mRNA in the presence of chemical substance/The level of expressed mRNA in the absence of chemical substance,yeast gene YGL163C,1.5
same,The level of expressed mRNA in the presence of chemical substance/The level of expressed mRNA in the absence of chemical substance,yeast gene YGL249W,1.1
same,The level of expressed mRNA in the presence of chemical substance/The level of expressed mRNA in the absence of chemical substance,yeast gene YGR180C,2.0
same,The level of expressed mRNA in the presence of chemical substance/The level of expressed mRNA in the absence of chemical substance,yeast gene YGR231C,1.3
same,The level of expressed mRNA in the presence of chemical substance/The level of expressed mRNA in the absence of chemical substance,yeast gene YGR258C,1.5
same,The level of expressed mRNA in the presence of chemical substance/The level of expressed mRNA in the absence of chemical substance,yeast gene YHR164C,0.9
same,The level of expressed mRNA in the presence of chemical substance/The level of expressed mRNA in the absence of chemical substance,yeast gene YIL036W,0.9
same,The level of expressed mRNA in the presence of chemical substance/The level of expressed mRNA in the absence of chemical substance,yeast gene YIL072W,1.5
same,The level of expressed mRNA in the presence of chemical substance/The level of expressed mRNA in the absence of chemical substance,yeast gene YIL143C,0.8
same,The level of expressed mRNA in the presence of chemical substance/The level of expressed mRNA in the absence of chemical substance,yeast gene YIL153W,1.0
same,The level of expressed mRNA in the presence of chemical substance/The level of expressed mRNA in the absence of chemical substance,yeast gene YIR002C,1.2
same,The level of expressed mRNA in the presence of chemical substance/The level of expressed mRNA in the absence of chemical substance,yeast gene YJL026W,1.7
same,The level of expressed mRNA in the presence of chemical substance/The level of expressed mRNA in the absence of chemical substance,yeast gene YJR046W,0.8
same,The level of expressed mRNA in the presence of chemical substance/The level of expressed mRNA in the absence of chemical substance,yeast gene YJR052W,1.0
same,The level of expressed mRNA in the presence of chemical substance/The level of expressed mRNA in the absence of chemical substance,yeast gene YKL145W,1.4
same,The level of expressed mRNA in the presence of chemical substance/The level of expressed mRNA in the absence of chemical substance,yeast gene YLR103C,1.0
same,The level of expressed mRNA in the presence of chemical substance/The level of expressed mRNA in the absence of chemical substance,yeast gene YLR233C,1.2
same,The level of expressed mRNA in the presence of chemical substance/The level of expressed mRNA in the absence of chemical substance,yeast gene YLR288C,1.7
same,The level of expressed mRNA in the presence of chemical substance/The level of expressed mRNA in the absence of chemical substance,yeast gene YML032C,1.0
same,The level of expressed mRNA in the presence of chemical substance/The level of expressed mRNA in the absence of chemical substance,yeast gene YML058W,0.6
same,The level of expressed mRNA in the presence of chemical substance/The level of expressed mRNA in the absence of chemical substance,yeast gene YMR035W,0.8
same,The level of expressed mRNA in the presence of chemical substance/The level of expressed mRNA in the absence of chemical substance,yeast gene YMR072W,1.7
same,The level of expressed mRNA in the presence of chemical substance/The level of expressed mRNA in the absence of chemical substance,yeast gene YMR096W,1.0
same,The level of expressed mRNA in the presence of chemical substance/The level of expressed mRNA in the absence of chemical substance,yeast gene YMR284W,0.8
same,The level of expressed mRNA in the presence of chemical substance/The level of expressed mRNA in the absence of chemical substance,yeast gene YNL213C,1.3
same,The level of expressed mRNA in the presence of chemical substance/The level of expressed mRNA in the absence of chemical substance,yeast gene YNL250W,0.8
same,The level of expressed mRNA in the presence of chemical substance/The level of expressed mRNA in the absence of chemical substance,yeast gene YNL261W,0.7
same,The level of expressed mRNA in the presence of chemical substance/The level of expressed mRNA in the absence of chemical substance,yeast gene YNL312W,1.4
same,The level of expressed mRNA in the presence of chemical substance/The level of expressed mRNA in the absence of chemical substance,yeast gene YOL043C,1.2
same,The level of expressed mRNA in the presence of chemical substance/The level of expressed mRNA in the absence of chemical substance,yeast gene YOR005C,1.3
same,The level of expressed mRNA in the presence of chemical substance/The level of expressed mRNA in the absence of chemical substance,yeast gene YOR386W,1.2
same,The level of expressed mRNA in the presence of chemical substance/The level of expressed mRNA in the absence of chemical substance,yeast gene YPL022W,0.8
same,The level of expressed mRNA in the presence of chemical substance/The level of expressed mRNA in the absence of chemical substance,yeast gene YPL164C,1.2
same,The level of expressed mRNA in the presence of chemical substance/The level of expressed mRNA in the absence of chemical substance,yeast gene YPL194W,1.3
same,The level of expressed mRNA in the presence of chemical substance/The level of expressed mRNA in the absence of chemical substance,yeast gene YPR025C,1.6
